{"source": "patent US8138304B2", "about": "“Neural regeneration peptides and formulations thereof” (Neuren Pharmaceuticals Limited, priority 2005, dated 2012)", "key": {"[1]": {"tested_on": "purified primary placental trophoblasts", "experiment": "TNF-alpha-induced cytotoxicity in isolated trophoblasts (survival assay)", "type": "cell-based, human", "settings": "24 hrs pre-incubation", "method": "Human trophoblast cells were isolated from term placentas with prior approval by the Ethics Committee of the University of Auckland and consent of the patients. The maternal decidua was removed, exposing the villous interior of the placenta. Pieces of villous tissue were cut out and washed thoroughly with PBS before digestion using 0.25% trypsin. The digest was then diluted in Locke Ringers Buffer and DNAase I. Digestion of connective tissue surrounding the placental cells was carried out while stirring the mixture with a magnetic stirrer at a temperature of 37° C. The process was repeated 8 times, with the last 6 supernatants being collected in a bottle containing fetal bovine serum (FBS). The digestion step produced a heterogeneous dispersed cell preparation. The pooled supernates was centrifuged for 7 minutes at 1200 rpm. The cell pellet was resuspended in PBS and centrifuged. This was followed by a 10-minute incubation in erythrocyte lysis buffer with an underlayer of FBS in the last 2 minutes, followed by centrifugation for 7 minutes. Cells were resuspended in M199 medium and recentrifuged.\nCells were then purified using a percoll gradient (5, 20, 30, 35, 40, 50 and 60%). The gradients were prepared with the 60% percoll on the bottom, with decreasing concentrations near the top of the gradient. Cells were introduced into the 5% percoll layer. The cells were centrifuged for 20 minutes at 1200G to separate trophoblasts from debris and other cell types, leaving a band of trophoblasts in the 40% percoll band. This band was collected, the cells washed in M199 medium centrifuged and finally counted and plated according to the methods of Keelan et al, 1998.\nIn this series of experiments, we studied whether NRP-5RG D6A was able to protect purified primary placental trophoblasts against TNF-alpha mediated injury.\nIn this study, we plated 30,000 freshly isolated trophoblast cells per well in microtiter well plates followed by pre-incubation with NRP-5RG D6A (SEQ ID NO: 1) for 24 hours. […]"}, "cerebellar cells": {"tested_on": "cerebellar cells", "experiment": "Cerebellar microexplant proliferation assay (BrdU)", "type": "cell-based, Wistar rat", "method": "Laminated cerebellar cortices of the two hemispheres were explanted from a P3, P4, P7 or P8 Wistar rat, cut into small pieces in GBSS with 0.65% D(+)glucose solution, and triturated by a 0.4 mm gauge needle and subsequently pressed through a 125 μm pore size sieve. The obtained microexplants were centrifuged (60×g) 2 times for a medium exchange into serum-free BSA-supplemented START V-medium (Biochrom). Finally, the microexplants were reconstituted in 500 μl STARTV-medium. For culturing, 38 μl of the cell suspension was incubated for 1 hour on a poly-D-lysine-coated cover slip in a 35 mm Petri dish under an atmosphere comprising 5% CO2 in air and 100% humidity at 34° C. Subsequently, the injuring toxins (as described below), NRPs and 1 ml of STARTV-medium were added, and the cultures were evaluated after 2-3 days of culture.\nToxicological and drug administration experiments were designed such that 1/100 parts of toxin and neuroprotective drug were administered simultaneously to the freshly prepared cerebellar microexplants. Glutamate was prepared as a 50 mM stock solution in MilliQ water while 50 mM 3-nitropropionic acid was pH-adjusted (pH 6.8-7.2) in MilliQ water. The concentrations of the oxidative stress inducing toxin, 3-nitropropionic acid (3-NP), and the excitotoxin, glutamate, in the assay were 0.5 mM each. Lyophilized peptides were reconstituted in PBS or 100 μg/ml human transferrin as a 10 μM stock solution. Subsequently, serial dilutions were made. Cerebellar microexplants were cultivated for 48-72 hours at 34° C., 5% CO2 in air and 100% humidity before they were fixed by increasing amounts of paraformaldehyde (0.4%, 1.2%, 3% and 4%—each treatment 2-3 min).\nUsing the toxins described above, cerebellar explants were exposed for 24 hours, at the beginning of culturing to dilutions of NRP (survival assay) or NRP and 0.1 μM BrdU (proliferation assay). Subsequently, 80% of the medium was changed without addition of new toxins and NRPs. […]\nFor statistical analysis of proliferation BrdU-positive nuclei were counted. Statistical significance was measured by Student's t-test."}, "[2]": {"tested_on": "mouse neural stem cells (MEB-5 cells)", "experiment": "Haptotactic migration assay, physiological (injury-free) conditions", "type": "cell-based", "settings": "0.1 ng/ml NRP coating", "method": "An NRP was tested for migration-inducing/chemoattractive activity on mouse neural stem cells in a haptotactic migration assay as described below.\nControl wells of Transwell plates (Corning) with 12 μm pore size were coated in 1.5 ml of the BSA/PBS vehicle. Remaining plates were coated using 0.1 ng/ml of NRP (SEQ ID NO: 1) (prepared in PBS containing 10 ug/ml BSA).\nLaminin (7 μg/ml) was used as extracellular matrix (ECM) coating for mouse primary stem cells. The matrix was incubated at 37° C.; 5% C02 for 2 hrs at room temperature. The cells were seeded onto the inserts (30,000 cells per well). Plates were fixed at 1-2 days in vitro (DIV).\nA 5 ug/mL PDL/PLL mixture (in PBS) was used to coat inserts. Subsequently the inserts were rinsed with MilliQ water.\nInserts were discarded and wells fixed in successive dilutions of PFA (0.4, 1.2, 3 and 4%) for 3-5 min in each dilution. […] The wells were rinsed and stored in PBS until counting."}}, "note": "Where no end group is shown, it is not given here."}
{"substance": "REGRRAAPGRAGG-NH2 (listed as Homo sapiens) [SEQ ID NO: 1, 13-mer NRP analogue]", "values": [{"measurement": "protection from TNF-alpha mediated injury", "setting": "[1]; 1 pM, TNF-alpha 5 or 50 ng/ml plus interferon gamma, 48 h", "value": 100, "unit": "%"}, {"measurement": "cytoprotection from TNF-alpha mediated injury", "setting": "[1]; 10 pM", "value": "protective"}, {"measurement": "cytoprotection from TNF-alpha mediated injury", "setting": "[1]; 1 nM", "value": "not statistically significant"}, {"measurement": "proliferation rate compared to the uninjured vehicle", "setting": "cerebellar cells; 1 pM, BrdU", "value": "increased the proliferation rate in these cultures significantly"}, {"measurement": "proliferation compared against injured cells without NRP", "setting": "cerebellar cells; p<0.01, SEQ ID NO: 1 at 1 pM, SEQ ID NO: 2 at 100 pM", "value": "highly proliferation-inducing"}, {"measurement": "more cells migrating in comparison with BSA-vehicle", "setting": "[2]", "value": 55.4, "unit": "%"}]}
